Assay results reported in article PMC7918738, “Microtubule Destabilizing Sulfonamides as an Alternative to Taxane-Based Chemotherapy” (International Journal of Molecular Sciences, 2021).

Tests used:
[1] = tested on: A2780 ovarian carcinoma cells; experiment: Antiproliferative activity against A2780 (MTT); assay type: cell-based; conditions: Homo sapiens, 72 h
Experimental: (§1) The in vitro antiproliferative activity of compounds 38, 42, and 45 against a panel of five human ovarian carcinoma cell lines (SKOV3, IGROV-1, A2780, OVCAR-8, and OVCAR-3) was evaluated by a colorimetric method (Table 3) and compared with paclitaxel. […] For SKOV3, the potency reduction observed for paclitaxel together with a sustained or improved (42 with a 7 nM IC50 value) potency for MDS results in a more favorable profile of the MDS compared to paclitaxel.
MCF7 (human breast carcinoma), SKOV-3 (human ovarian carcinoma), OVCAR-3 (human ovarian carcinoma), OVCAR-8 (human ovarian carcinoma), and HeLa (human cervical carcinoma) cell lines were cultured in Dulbecco’s Modified Eagle’s Medium (DMEM) (Gibco, Thermo Fischer Scientific) containing 10% (v/v) heat-inactivated fetal bovine serum (HIFBS) (Lonza-Cambrex, Karlskoga, Sweden), 2 mM L-glutamine (Lonza-Cambrex, Karlskoga, Sweden), 100 μg/mL streptomycin, and 100 IU/mL penicillin (Lonza-Cambrex) at 37 °C in humidified 95% air and 5% CO2. […]
(§2) MCF7, HeLa, and HT-29 cell proliferation, when treated with the corresponding compounds, were determined using the XTT (sodium 3’-[1(phenylaminocarbonyl)-3,4-tetrazolium]-bis(4-methoxy-6-nitro)-benzenesulfonic acid hydrate) cell proliferation kit (Roche Molecular Biochemicals, Mannheim, Germany). […] The absorbance of the formazan product generated was measured at 450 nm using a multi-well plate reader. SKOV-3, OVCAR-3, OVCAR-8, IGROV-1, A-2780 cell proliferation, when treated with the corresponding compound, were determined using MTT (3-(4,5-dimethylthiazol-2-yl)-2,5-diphenyl-2H-tetrazolium bromide) (Sigma-Aldrich, St. Louis, MO, USA). […] Absorbance was measured at 570 nm in a plate reader (Ultra Evolution, Tecan, Männedorf, Suiza). […] After 24 h incubation, to allow cells to attach to the plates, all compounds were added at 1 µM concentration and the effect on the proliferation was evaluated 72 h post-treatment. […]

HeLa cells = experiment: Annexin V-FITC/PI cell death quantification in HeLa; assay type: cell-based, human; conditions: 38 600 nM, 42 50 nM, 45 400 nM
Experimental: To determine whether the cytotoxic/antiproliferative effect of the MDS was due to apoptosis induction, cells were treated with variable concentrations of the drug for 72 h or 6 days, stained with Annexin V-FITC (AnV) and propidium iodide (PI), and analyzed by flow cytometry. Double negative cells (AnV^−/PI^−) were classified as live cells (L), cells positive for AnV and negative for PI (AnV^+/PI^−) were considered in Early Apoptosis (EA), cells negative for AnV and positive for PI (AnV^−/PI^+) were considered necrotic (N), and double-positive cells (AnV^+/PI^+) as Late Apoptosis (LA). In all cases, the compounds were used at the same concentrations previously used in cell cycle studies (Table 5).
MCF7, SKOV-3, and HeLa apoptotic cells were quantified using an Annexin V-FITC/PI apoptosis detection kit (Immunostep, Salamanca, Spain) according to the manufacturer’s guidelines. 1.5 mL/well of cells in the exponential growth phase at 2·10^4 cells/mL were seeded onto 12-well plates and left to attach overnight. After 24 h incubation, cells were treated with selected compounds. After 72 h (MCF7, SKOV-3, and HeLa) and 6 days (MCF7) post-treatment, attached and floating cells of treated and untreated wells were collected, centrifuged, resuspended in Annexin V binding buffer, and stained with Annexin V-FITC/PI. Cells were then incubated in darkness at room temperature for 15 min and a total of 30,000 cells were acquired and analyzed using the BD Accuri™ C6 Plus Flow Cytometer and Software (version 1.0.264.21, BD Biosciences, San José, CA, USA), respectively. Compounds were dissolved in DMSO and the final solvent concentration never exceeded 0.5% (v/v). Control wells included cells with 0.5% (v/v) DMSO.

[2] = tested on: SKOV3 ovarian carcinoma cells; experiment: Antiproliferative activity against SKOV3 (MTT); assay type: cell-based; conditions: Homo sapiens, SK-OV-3, 72 h
Experimental: as §1
MCF7 (human breast carcinoma), SKOV-3 (human ovarian carcinoma), OVCAR-3 (human ovarian carcinoma), OVCAR-8 (human ovarian carcinoma), and HeLa (human cervical carcinoma) cell lines were cultured in Dulbecco’s Modified Eagle’s Medium (DMEM) (Gibco, Thermo Fischer Scientific) containing 10% (v/v) heat-inactivated fetal bovine serum (HIFBS) (Lonza-Cambrex, Karlskoga, Sweden), 2 mM L-glutamine (Lonza-Cambrex, Karlskoga, Sweden), 100 μg/mL streptomycin, and 100 IU/mL penicillin (Lonza-Cambrex) at 37 °C in humidified 95% air and 5% CO2. HT-29 (human colon carcinoma), IGROV-1 (human ovarian carcinoma), and A2780 (human ovarian carcinoma) cell lines were cultured in RPMI 1640 medium (Gibco, Thermo Fischer Scientific) supplemented with 10% HIFBS, 100 μg/mL streptomycin, and 100 IU/mL penicillin at 37 °C in humidified 95% air and 5% CO2 atmosphere. The presence of mycoplasma was routinely checked with MycoAlert kit (Lonza-Cambrex) and only mycoplasma-free cells were used in the experiments. Ovarian tumor cell lines were originally acquired from Dr Atanasio Pandiella from Centro de Investigación del Cáncer (CIC), Salamanca, Spain. HeLa, HT-29 and MCF7 tumor cell lines were provided by Dr Faustino Mollinedo from Centro de Investigaciones Biológicas Margarita Salas, Madrid, Spain.
as §2

SMILES	IC50 [1] [µM]	Annexin V-FITC/PI 72 h EA (early apoptosis) (HeLa cells) [%]	Annexin V-FITC/PI 72 h LA (late apoptosis, double-positives) (HeLa cells) [%]	Annexin V-FITC/PI 72 h Necrosis (HeLa cells) [%]	IC50 [2] [µM]
CNc1ccc(S(=O)(=O)N(C)c2cc(OC)c(OC)c(OC)c2)cc1 [Compound 38]	0.068	1.1	87.6	10.6	0.046
COc1ccc(S(=O)(=O)N(C)c2cc(OC)c(OC)c(OC)c2)cc1N [Compound 42]	0.042	1.4	82.0	9.4	0.007
COc1ccc(S(=O)(=O)N(Cc2ccccc2)c2cc(OC)c(OC)c(OC)c2)cc1N [Compound 45]	0.104	1.5	84.9	12.7	0.048
